What was measured:
Experiment in all cases: relative viability (nuclei count vs DMSO), 5 days (fraction); higher = more cells survive
ABC-1 = test system: ABC-1
Method in brief: (§1)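 Cells from lung cancer lines were seeded into 1536-well plates and, one day later, dosed by pin tool. Treatments were either a single drug or a fixed dose of an anchor drug with five library-drug doses (not always all listed) in √10 steps. After 5 days, nuclei were stained in a one-step fixation (final 0.05% Triton X-100, 1% formaldehyde, 1 ug/ml Hoechst) and counted on 4× images, and relative viability is the treated-to-vehicle nuclei ratio, as the median of duplicate plates.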

COR-L23 = test system: COR-L23
Method in brief: as §1

ChaGo-K-1 = test system: ChaGo-K-1
Method in brief: as §1

NCI-H1437 = test system: NCI-H1437
Method in brief: as §1

NCI-H1623 = test system: NCI-H1623
Method in brief: as §1

NCI-H1648 = test system: NCI-H1648
Method in brief: as §1

NCI-H1651 = test system: NCI-H1651
Method in brief: as §1

SK-MES-1 = test system: SK-MES-1
Method in brief: as §1

SW 1573 = test system: SW 1573
Method in brief: as §1

Nc1ccn([C@@H]2O[C@H](CO)[C@@H](O)[C@@H]2O)c(=O)n1 [Cytarabine] + Cc1cc(Nc2cc(N3CCN(C)CC3)nc(Sc3ccc(NC(=O)C4CC4)cc3)n2)n[nH]1 [Tozasertib] (partner 0.1 µM)
relative viability (ABC-1; first compound 0.005 µM): 0.209 | relative viability (ABC-1; first compound 0.01581 µM): 0.176 | relative viability (ABC-1; first compound 0.05 µM): 0.174 | relative viability (ABC-1; first compound 0.1581 µM): 0.154 | relative viability (ABC-1; first compound 0.5 µM): 0.183 | relative viability (COR-L23; first compound 0.005 µM): 0.164 | relative viability (COR-L23; first compound 0.01581 µM): 0.141 | relative viability (COR-L23; first compound 0.05 µM): 0.159 | relative viability (COR-L23; first compound 0.1581 µM): 0.123 | relative viability (COR-L23; first compound 0.5 µM): 0.129 | relative viability (ChaGo-K-1; first compound 0.005 µM): 0.188 | relative viability (ChaGo-K-1; first compound 0.01581 µM): 0.207 | relative viability (ChaGo-K-1; first compound 0.05 µM): 0.208 | relative viability (ChaGo-K-1; first compound 0.1581 µM): 0.16 | relative viability (ChaGo-K-1; first compound 0.5 µM): 0.149 | relative viability (NCI-H1437; first compound 0.005 µM): 0.295 | relative viability (NCI-H1437; first compound 0.01581 µM): 0.355 | relative viability (NCI-H1437; first compound 0.05 µM): 0.365 | relative viability (NCI-H1437; first compound 0.1581 µM): 0.251 | relative viability (NCI-H1437; first compound 0.5 µM): 0.175 | relative viability (NCI-H1623; first compound 0.005 µM): 0.325 | relative viability (NCI-H1623; first compound 0.01581 µM): 0.264 | relative viability (NCI-H1623; first compound 0.05 µM): 0.284 | relative viability (NCI-H1623; first compound 0.1581 µM): 0.199 | relative viability (NCI-H1623; first compound 0.5 µM): 0.178 | relative viability (NCI-H1648; first compound 0.005 µM): 0.456 | relative viability (NCI-H1648; first compound 0.01581 µM): 0.517 | relative viability (NCI-H1648; first compound 0.05 µM): 0.484 | relative viability (NCI-H1648; first compound 0.1581 µM): 0.265 | relative viability (NCI-H1648; first compound 0.5 µM): 0.32 | relative viability (NCI-H1651; first compound 0.005 µM): 0.688 | relative viability (NCI-H1651; first compound 0.01581 µM): 0.707 | relative viability (NCI-H1651; first compound 0.05 µM): 0.746 | relative viability (NCI-H1651; first compound 0.1581 µM): 0.577 | relative viability (NCI-H1651; first compound 0.5 µM): 0.206 | relative viability (SK-MES-1; first compound 0.005 µM): 0.583 | relative viability (SK-MES-1; first compound 0.01581 µM): 0.483 | relative viability (SK-MES-1; first compound 0.05 µM): 0.28 | relative viability (SK-MES-1; first compound 0.1581 µM): 0.179 | relative viability (SK-MES-1; first compound 0.5 µM): 0.159 | relative viability (SW 1573; first compound 0.005 µM): 0.184 | relative viability (SW 1573; first compound 0.01581 µM): 0.161 | relative viability (SW 1573; first compound 0.05 µM): 0.128 | relative viability (SW 1573; first compound 0.1581 µM): 0.169 | relative viability (SW 1573; first compound 0.5 µM): 0.101

Cc1sc2c(c1C)C(c1ccc(Cl)cc1)=N[C@@H](CC(=O)OC(C)(C)C)c1nnc(C)n1-2 [JQ1] + Cc1cc(Nc2cc(N3CCN(C)CC3)nc(Sc3ccc(NC(=O)C4CC4)cc3)n2)n[nH]1 [Tozasertib] (partner 0.1 µM)
relative viability (ABC-1; first compound 0.04 µM): 0.187 | relative viability (ABC-1; first compound 0.1265 µM): 0.18 | relative viability (ABC-1; first compound 0.4 µM): 0.196 | relative viability (ABC-1; first compound 1.265 µM): 0.175 | relative viability (ABC-1; first compound 4 µM): 0.179 | relative viability (COR-L23; first compound 0.04 µM): 0.217 | relative viability (COR-L23; first compound 0.1265 µM): 0.148 | relative viability (COR-L23; first compound 0.4 µM): 0.154 | relative viability (COR-L23; first compound 1.265 µM): 0.11 | relative viability (COR-L23; first compound 4 µM): 0.109 | relative viability (ChaGo-K-1; first compound 0.04 µM): 0.205 | relative viability (ChaGo-K-1; first compound 0.1265 µM): 0.224 | relative viability (ChaGo-K-1; first compound 0.4 µM): 0.168 | relative viability (ChaGo-K-1; first compound 1.265 µM): 0.158 | relative viability (ChaGo-K-1; first compound 4 µM): 0.164 | relative viability (NCI-H1437; first compound 0.04 µM): 0.421 | relative viability (NCI-H1437; first compound 0.1265 µM): 0.357 | relative viability (NCI-H1437; first compound 0.4 µM): 0.357 | relative viability (NCI-H1437; first compound 1.265 µM): 0.224 | relative viability (NCI-H1437; first compound 4 µM): 0.174 | relative viability (NCI-H1623; first compound 0.04 µM): 0.493 | relative viability (NCI-H1623; first compound 0.1265 µM): 0.367 | relative viability (NCI-H1623; first compound 0.4 µM): 0.404 | relative viability (NCI-H1623; first compound 1.265 µM): 0.375 | relative viability (NCI-H1623; first compound 4 µM): 0.335 | relative viability (NCI-H1648; first compound 0.04 µM): 0.495 | relative viability (NCI-H1648; first compound 0.1265 µM): 0.516 | relative viability (NCI-H1648; first compound 0.4 µM): 0.243 | relative viability (NCI-H1648; first compound 1.265 µM): 0.153 | relative viability (NCI-H1648; first compound 4 µM): 0.137 | relative viability (NCI-H1651; first compound 0.04 µM): 0.69 | relative viability (NCI-H1651; first compound 0.1265 µM): 0.683 | relative viability (NCI-H1651; first compound 0.4 µM): 0.672 | relative viability (NCI-H1651; first compound 1.265 µM): 0.31 | relative viability (NCI-H1651; first compound 4 µM): 0.24 | relative viability (SK-MES-1; first compound 0.04 µM): 0.929 | relative viability (SK-MES-1; first compound 0.1265 µM): 0.507 | relative viability (SK-MES-1; first compound 0.4 µM): 0.419 | relative viability (SK-MES-1; first compound 1.265 µM): 0.208 | relative viability (SK-MES-1; first compound 4 µM): 0.171 | relative viability (SW 1573; first compound 0.04 µM): 0.182 | relative viability (SW 1573; first compound 0.1265 µM): 0.137 | relative viability (SW 1573; first compound 0.4 µM): 0.181 | relative viability (SW 1573; first compound 1.265 µM): 0.141 | relative viability (SW 1573; first compound 4 µM): 0.16

— the supplement of paper PMC10307832
